Assay results taken from US11883402B2, “Crystalline forms of a quinazoline compound and its hydrochloride salts” (Hanmi Pharmaceutical Co., Ltd., priority 2018, dated 2024).
One block for each molecule: values may come before it.

Key:
Assay type in all cases: physicochemical
[1] = Comparative test of stability (HPLC purity on storage) of amorphous form and crystalline polymorphs of the hydrochloride salt (Test Example 2); settings: listed as HCl amorphous
Experimental: High performance liquid chromatography (HPLC) was conducted on the Agilent 1100/1200 series HPLC Systems (Agilent, USA) analyzer for the purpose of purity and content analysis including stability test and the like. The analysis conditions of the HPLC are as follows.
To compare the stability of amorphous hydrochloride salt form and crystalline hydrochloride salt polymorphs, each of samples of the polymorphs and amorphous form of the hydrochloride salt of the compound of chemical formula (1) prepared in Examples 4 to 6 was left for 4 weeks under long term conditions (e.g., temperature of 25±2° C. and relative humidity of 60±5%) and accelerated conditions (e.g., temperature of 40° C. and relative humidity of 75%). Each sample was analyzed by high performance liquid chromatography (HPLC) according to the purity measurement conditions of the compound of chemical formula (1).

[2] = Dynamic vapor sorption (DVS) hygroscopicity; settings: for Hygroscopic degree (DVS): 25° C.
Experimental: Dynamic Vapor Sorption (DVS) analysis was conducted on the DVS advantage (Surface measurement system, United Kingdom) analyzer at 25° C. and relative humidity of 0-90%.
10 mg of sample was placed in the wire mesh steam sorption balance pan and attached to the DVS-advantage dynamic vapor adsorption balance by the Surface Measurement Systems. […] After the completion of the sorption cycle, the sample was dried using the same procedure, during which the relative humidity was returned to a relative humidity […] all the time. The change in weight during the sorption/desorption cycle (repetition of 3 times) was recorded to determine the hygroscopicity of the sample.

[3] = Behaviour under long-term, accelerated and harsh storage conditions (moisture absorption, stability of form)
[4] = Comparative test of solubility of amorphous form and crystalline polymorphs of the hydrochloride salt (Test Example 1); settings: 25° C., loading of 1.0 mg/mL, LOD 0.1 μg/mL, based on compound of formula (1), listed as HCl cryst. hydrate
Experimental: To compare the solubility of amorphous hydrochloride salt form and crystalline hydrochloride salt polymorphs, each of the polymorphs and amorphous form of the hydrochloride salt of the compound of chemical formula (1) prepared in Examples 4 to 6 was used to prepare samples under the following conditions according to non-ionized water and acidity (pH). Thereafter, each solution was analyzed by high performance liquid chromatography (HPLC) according to the measurement conditions of the content of the compound of chemical formula (1) to measure the dissolved amount (LOD: 0.1 μg/mL) based on the compound of chemical formula (1).
Specifically, 5 mg of each polymorph was added to 5 ml of water and mixed using a Voltamixer at 20-25° C. Thereafter, the filtrate obtained by filtrating using GH Polypro membrane Acrodisc, PALL (pore size 0.2 μm) was diluted with a dilution solvent for high performance liquid chromatography (HPLC) at a ratio of 1/100, to obtain the samples.

- Solubility, Water [4]: <LOD
SMILES: C=CC(=O)N1CCC(Oc2cc3c(Nc4ccc(Cl)c(Cl)c4F)ncnc3cc2OC)CC1 [Example 4, 1-(4-(4-(3,4-dichloro-2-fluorophenylamino)-7-methoxyquinazolin-6-yloxy)piperidin-1-yl)prop-2-en-1-one]

- Stability under storage conditions (in words) ([3]; long-term (25° C., 60% RH), accelerated (40° C., 75% RH) and harsh (60° C.) conditions): sufficiently stable
SMILES: C=CC(=O)N1CCC(Oc2cc3c(Nc4ccc(Cl)c(Cl)c4F)ncnc3cc2OC)CC1 [Example 3, 1-(4-(4-(3,4-dichloro-2-fluorophenylamino)-7-methoxyquinazolin-6-yloxy)piperidin-1-yl)prop-2-en-1-one]

- Hygroscopic degree (DVS) ([2]; relative humidity range of 10%-50%): 0.3-0.5%
- Hygroscopic degree (DVS) ([2]; relative humidity range of 50-90%): about 3%
SMILES: C=CC(=O)N1CCC(Oc2cc3c(Nc4ccc(Cl)c(Cl)c4F)ncnc3cc2OC)CC1 [Example 2, 1-(4-(4-(3,4-dichloro-2-fluorophenylamino)-7-methoxyquinazolin-6-yloxy)piperidin-1-yl)prop-2-en-1-one]

Further lines, the molecule ahead of its results:

SMILES: C=CC(=O)N1CCC(Oc2cc3c(Nc4ccc(Cl)c(Cl)c4F)ncnc3cc2OC)CC1 [Example 6, 1-(4-(4-(3,4-dichloro-2-fluorophenylamino)-7-methoxyquinazolin-6-yloxy)piperidin-1-yl)prop-2-en-1-one]
- Purity (HPLC, %) 3 days ([1]; 25 ± 2° C., 60 ± 5% RH): 98.0%
- Purity (HPLC, %) Start ([1]; 25 ± 2° C., 60 ± 5% RH): 98.0%
- Purity (HPLC, %) Week 1 ([1]; 25 ± 2° C., 60 ± 5% RH): 98.0%
- Purity (HPLC, %) Week 2 ([1]; 25 ± 2° C., 60 ± 5% RH): 97.9%
- Purity (HPLC, %) Week 4 ([1]; 25 ± 2° C., 60 ± 5% RH): 97.9%
- Purity (HPLC, %) 3 days ([1]; 40 ± 2° C., 75 ± 5% RH): 97.9%
- Purity (HPLC, %) Start ([1]; 40 ± 2° C., 75 ± 5% RH): 98.0%
- Purity (HPLC, %) Week 1 ([1]; 40 ± 2° C., 75 ± 5% RH): 97.9%
- Purity (HPLC, %) Week 2 ([1]; 40 ± 2° C., 75 ± 5% RH): 97.8%
- Purity (HPLC, %) Week 4 ([1]; 40 ± 2° C., 75 ± 5% RH): 97.6%
- Hygroscopic degree (DVS), in words ([2]; relative humidity range of 10-90%): very high hygroscopic degree
- Moisture absorption on storage ([3]; 25° C., 60% relative humidity and 40° C., 75% relative humidity): 7-9%

SMILES: C=CC(=O)N1CCC(Oc2cc3c(Nc4ccc(Cl)c(Cl)c4F)ncnc3cc2OC)CC1 [Example 5, 1-(4-(4-(3,4-dichloro-2-fluorophenylamino)-7-methoxyquinazolin-6-yloxy)piperidin-1-yl)prop-2-en-1-one]
- Moisture absorption on storage (in words) ([3]; long-term (25° C., 60% RH) and accelerated (40° C., 75% RH) conditions): did not absorb moisture
